Tests used:
[1] = system: U2OS cells; assay: Cycloheximide protein stability western blot; format: cell-based, Human; settings: CHX 50 μg/ml with 5 μM ATRi vs CHX alone
Procedure: Fresh media containing CHX or CHX/ATRi was added every 6 hours. The right panel is a bar graph generated by measuring the intensity of the BRCA1 band from three independent experiments. Two-tailed Student's t-test was used for the statistics (Error bars=SD, N=3, ****P-value<0.0001).
Cells were harvested and lysed in modified radioimmunoprecipitation assay (RIPA) buffer (50 mM Tris-HCl pH 7.5, 150 mM NaCl, 1% tergitol, 0.25% sodium deoxycholate, 5 mM EDTA) supplemented with Complete EDTA-free protease inhibitor cocktail (Roche), 1 mM PMSF, 5 mM sodium fluoride, 10 mM β-glycerol-phosphate and 0.4 mM sodium orthovanadate. Whole cell lysates were cleared with 5 minute centrifugation at 13,000 rpm at 4° C. and mixed with 3×SDS sample buffer (bromophenol blue, stacking gel buffer, 50% glycerol, 3% SDS and 60 mM DTT). After being resolved on SDS-PAGE gels, proteins were then transferred onto polyvinylidene difluoride (PVDF) membranes and detected with designated antibodies.

[2] = system: U2OS cells; assay: DR-GFP assay of HR-mediated repair; format: cell-based, Human
Procedure: Human U2OS, HCT116, hTERT RPE-1, HEK293T, HeLa, U87, T98G, A2780, and human skin fibroblast cells (GM08398 and GM18366) were grown in DMEM media supplemented with 10% bovine calf serum, penicillin/streptomycin and non-essential amino acids. SV40 large T antigen transformed hTERT RPE-1 cells were generated by infecting hTERT RPE-1 cells with a SV40 large T antigen (SV40 LT)-expressing retrovirus and were selected using 500 μg/ml G418. The stable SV40 large T antigen transformed hTERT RPE-1 cell line was then maintained in culture media supplemented 500 μg/ml G418. For chronic treatment with ATR inhibitor (ATRi, VE-821) or ATM inhibitor (ATMi, KU-55933), cells were maintained in media with 5 μM ATR or ATM inhibitor respectively for 8 days before cells were subjected to western blot analysis, proteomic analysis, DR-GFP/EJ5-GFP assay or immunofluorescent staining. For CHK1 inhibitor (UCN-01), cells were treated for 5 days with 0.2 μM of inhibitor before the analysis. Primary human fibroblast cells from control subjects (GM08398) and patients with Seckel syndrome (GM18366, ATR-defective) were obtained from Coriell Institute for Medical Research, Camden, N.J.
For the DR-GFP assay, cells (U2OS, HCT116, hTERT RPE-1, HEK293T, HeLa, U87, T98G, A2780, 293-T-REX-E2F6 cells and SV40 large T antigen transformed hTERT RPE-1) were transfected with the mCherry plasmid or DR-GFP reporter plasmid (pDR-GFP; addgene plasmid 26475) together with a plasmid coding for I-SceI (pCBASceI; addgene plasmid 26477) or DR-GFP reporter plasmid together with an empty plasmid pCAGGS. Two days after transfection, cells were trypsinized, resuspended in PBS and then analyzed by flow cytometry using FACSAria Fusion or Accuri C6 cytometer (BD). In each experiment, the percentage of GFP-positive cells from the sample transfected with empty plasmid pCAGGS was subtracted from the percentage of GFP-positive cells in the sample transfected with I-SceI. The GFP percentage was then normalized by the mCherry transfection efficiency. Each graph was plotted based on at least 3 independent experiments showing mean±SEM (N≥3). For the EJ5-GFP assay, EJ5-GFP reporter plasmid (pimEJ5GFP, addgene plasmid 44026) was used instead of DR-GFP reporter plasmid and the assay was performed as described for DR-GFP assay.

With `CS(=O)(=O)c1ccc(-c2cnc(N)c(C(=O)Nc3ccccc3)n2)cc1` [ATRi, VE-821] the “Abundance of the other HR proteins monitored in CHX-treated cells” value [1] was “did not change”, the “Protein levels of BRCA1 in CHX-treated cells” value [1] was “decreased” and the “HR-mediated repair efficiency (DR-GFP, GFP positive cells over DMSO)” value ([2]; 5 μM, chronic 8 days) was “strikingly more severe impairment in HR-mediated repair as compared to short-term ATR inhibition”. The “HR (DR-GFP) upon short-term ATR inhibition” value ([2]; short-term (2 days) ATRi) was “modest reduction in HR”.

Reference: patent US20190365745A1, “USE OF CHRONIC TREATMENT WITH ATR INHIBITORS TO SENSITIZE CANCER CELLS TO PARP INHIBITORS” (Cornell University, priority 2018, published 2019)
